According to patent US9833497B2, “Human originated EGF domain proteins and use of the same” (CHENGDU SOURCEBIO LIMITED-LIABILITY COMPANY, priority 2013, dated 2017):

Columns and labels:
Assay type in all cases: cell-based
Enterobacter cloacae = assay: MIC against Gram-negative bacteria: Enterobacter cloacae; settings: 5×10^5 CFU/mL
Summary of the method: (§1)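 Growth inhibition by human EGF domain proteins was scored in LB liquid culture seeded at 5×10^5 CFU/mL. Protein was applied as a two-fold dilution series in triplicate, with shaking incubation at 37° C; MIC is the lowest concentration giving no growth.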

Aeromonas hydrophila = assay: MIC against Gram-negative bacteria: Aeromonas hydrophila; settings: 5×10^5 CFU/mL
Summary of the method: as §1

E. coli BL21 = assay: MIC against Gram-negative bacteria: E. coli BL21; settings: 5×10^5 CFU/mL
Summary of the method: as §1

Serratia marcescens = assay: MIC against Gram-negative bacteria: Serratia marcescens; settings: 5×10^5 CFU/mL
Summary of the method: as §1

Moraxella catarrhalis = assay: MIC against Gram-negative bacteria: Moraxella catarrhalis; settings: 5×10^5 CFU/mL
Summary of the method: as §1

Proteus vulgaris = assay: MIC against Gram-negative bacteria: Proteus vulgaris; settings: 5×10^5 CFU/mL
Summary of the method: as §1

Citrobacter diversus = assay: MIC against Gram-negative bacteria: Citrobacter diversus; settings: 5×10^5 CFU/mL
Summary of the method: as §1

Proteus mirabilis = assay: MIC against Gram-negative bacteria: Proteus mirabilis; settings: 5×10^5 CFU/mL
Summary of the method: as §1

Klebsiella pneumonia = assay: MIC against Gram-negative bacteria: Klebsiella pneumonia; settings: 5×10^5 CFU/mL
Summary of the method: as §1

Pseudomonas aeruginosa = assay: MIC against Gram-negative bacteria: Pseudomonas aeruginosa; settings: 5×10^5 CFU/mL
Summary of the method: as §1

E. coli DH5α = assay: Antibacterial activity: MIC and growth curve against E. coli DH5α in 96-well plate; settings: minimal inhibitory concentration against E. coli DH5α; 96-well plate, 5×10^5 CFU/mL, 37° C., judged after 8 h
Summary of the method: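 MIC taken as lowest protein level with no bacterial growth, tracked by A600 every 30 min during 37 °C, 175 rpm culture. Two-fold protein series 50-12.5 μg/mL final, triplicate wells, against 5×10^5 CFU/mL of LB-washed mid-log cells.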

[1] = 10 h cultivation at 37° C., two-fold serial dilution

| Substance | MIC (E. coli DH5α) [µg/mL] | MIC (μg/mL) E. cloacae (Enterobacter cloacae; 10 h cultivation at 37° C.) [µg/mL] | MIC (μg/mL) A. hydrophila (Aeromonas hydrophila; 10 h cultivation at 37° C.) [µg/mL] | MIC (μg/mL) E. coli BL21 (E. coli BL21; 10 h cultivation at 37° C.) [µg/mL] | MIC (μg/mL) S. marcescens (Serratia marcescens; 10 h cultivation at 37° C.) [µg/mL] | MIC (μg/mL) M. catarrhalis (Moraxella catarrhalis; 10 h cultivation at 37° C.) [µg/mL] | MIC (μg/mL) P. vulgaris (Proteus vulgaris; 10 h cultivation at 37° C.) [µg/mL] | MIC (μg/mL) C. diversus (Citrobacter diversus; 10 h cultivation at 37° C.) [µg/mL] | MIC (μg/mL) P. mirabilis (Proteus mirabilis; 10 h cultivation at 37° C.) [µg/mL] | MIC (μg/mL) K. pneumonia (Klebsiella pneumonia; 10 h cultivation at 37° C.) [µg/mL] | MIC (μg/mL) P. aeruginosa (Pseudomonas aeruginosa; 10 h cultivation at 37° C.) [µg/mL] | other results |
| --- | --- | --- | --- | --- | --- | --- | --- | --- | --- | --- | --- | --- |
| PRT740 (GLNDCMHNNGQCGQLCLAIPGGHRCGCASHYTLDPSSRNCS; listed as Homo sapiens) | 12.5 |  |  |  |  |  |  |  |  |  |  | MIC E. cloacae (Enterobacter cloacae; 96-well plate, 37° C., 10 h): 50 µg/mL; MIC A. hydrophila (Aeromonas hydrophila; 96-well plate, 37° C., 10 h): 12.5 µg/mL; MIC E. coli BL21 (E. coli BL21; 96-well plate, 37° C., 10 h): 12.5 µg/mL; MIC S. marcescens (Serratia marcescens; 96-well plate, 37° C., 10 h): 25 µg/mL; MIC M. catarrhalis (Moraxella catarrhalis; 96-well plate, 37° C., 10 h): 50 µg/mL; MIC P. vulgaris (Proteus vulgaris; 96-well plate, 37° C., 10 h): 12.5 µg/mL; MIC C. diversus (Citrobacter diversus; 96-well plate, 37° C., 10 h): 12.5 µg/mL; MIC P. mirabilis (Proteus mirabilis; 96-well plate, 37° C., 10 h): 25 µg/mL; MIC K. pneumonia (Klebsiella pneumonia; 96-well plate, 37° C., 10 h): 12.5 µg/mL; MIC P. aeruginosa (Pseudomonas aeruginosa; 96-well plate, 37° C., 10 h): 50 µg/mL |
| PRT771 (VQDLCSKTTCKNDGVCTVRDGKAECRCQSGEDWWYMGERCE; listed as Homo sapiens) | 25 | 50 | 12.5 | 12.5 | 50 | 12.5 | 12.5 | 50 | 50 | 12.5 | 50 |  |
| PRT168 (CLPGCDEQHGFCDKPGECKCRVGWQGRYC; listed as Homo sapiens) | 25 | 12.5 | 50 | 25 | 12.5 | 50 | 50 | 12.5 | 12.5 | 25 | 12.5 |  |
| PRT1104 (EVDECASDPCKNEATCLNEIGRYTCICPHNYSGVNCE; listed as Homo sapiens) | 50 |  |  |  |  |  |  |  |  |  |  | MIC E. cloacae (Enterobacter cloacae; [1]): 25 µg/mL; MIC A. hydrophila (Aeromonas hydrophila; [1]): 50 µg/mL; MIC E. coli BL21 (E. coli BL21; [1]): 12.5 µg/mL; MIC S. marcescens (Serratia marcescens; [1]): 25 µg/mL; MIC M. catarrhalis (Moraxella catarrhalis; [1]): 12.5 µg/mL; MIC P. vulgaris (Proteus vulgaris; [1]): 50 µg/mL; MIC C. diversus (Citrobacter diversus; [1]): 25 µg/mL; MIC P. mirabilis (Proteus mirabilis; [1]): 25 µg/mL; MIC K. pneumonia (Klebsiella pneumonia; [1]): 12.5 µg/mL; MIC P. aeruginosa (Pseudomonas aeruginosa; [1]): 50 µg/mL |
| PRT809 (NESCTCANGAACSPIDGSCSCTPGWLGDTCE; listed as Homo sapiens) | 25 | 50 | 12.5 | 12.5 | 25 | 50 | 12.5 | 25 | 25 | 25 | 25 |  |
| PRT149 (LSNICLSHPCLNGQCIDTVSGYFCKCDSGWTGVNCT; listed as Homo sapiens) | 12.5 | 12.5 | 25 | 12.5 | 12.5 | 25 | 12.5 | 12.5 | 12.5 | 25 | 12.5 |  |
